Results: ChEMBL document CHEMBL1201862, “PubChem BioAssay data set” (2004)
Active and inactive are the calls of the source.

How the values were obtained:
Kallikrein-7 = Kallikrein-7 (Homo sapiens, UniProt P49862); assay: Fluorescence Intensity-based biochemical primary high throughput dose response assay to identify activators of kallikrein-7 (K7) zymogen.
[1] = Fluorescence-based cell-based high throughput dose response assay for inhibitors of the interaction of nucleotide-binding oligomerization domain containing 2 (NOD2) and the receptor-interacting serine-threonine kinase 2 (RIPK2).; format: functional; settings: Homo sapiens
Beta Lactamase = Beta Lactamase (Pseudomonas aeruginosa, UniProt Q932Y6); assay: BLA reporter interference, concentration series – BLA reporter cells, FRET fluorescence, artefact control for NOD2-RIPK2 interaction inhibitor project, dose response (AID 651552); format: functional, cell-based
Sequence of Beta Lactamase (Q932Y6 whole entry): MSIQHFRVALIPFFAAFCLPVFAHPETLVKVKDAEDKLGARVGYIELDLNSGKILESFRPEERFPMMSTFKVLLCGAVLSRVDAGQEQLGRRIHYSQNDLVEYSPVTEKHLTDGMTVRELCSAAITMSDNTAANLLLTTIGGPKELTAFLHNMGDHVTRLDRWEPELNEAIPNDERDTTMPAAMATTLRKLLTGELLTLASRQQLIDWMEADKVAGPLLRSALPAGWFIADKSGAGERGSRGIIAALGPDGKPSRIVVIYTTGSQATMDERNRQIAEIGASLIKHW

[2] = Luminescence Cell-Based Dose Retest to Confirm Inhibitors of Cancer Stem Cells. [Related pubchem assays (depositor defined):AID2717, AID2721]; format: functional; settings: Homo sapiens
[3] = bead-based luminescence quenchers, dual-tagged ARNT – biochemical, AlphaScreen, cherry-pick, artefact control for ARNT-TACC3 interaction inhibitor project, dose response (AID 651705); format: functional;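 further: AlphaScreen bead proximity signal that flags compounds interfering with the detection technology; potency reflects signal decrease which marks the compound as an assay artifact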
[4] = target: DNA repair and recombination protein RAD54-like (Homo sapiens, UniProt Q92698); assay: RAD54 Holliday junction migration blockers – biochemical, fluorescence, cherry-picked samples, dose series, confirmation (AID 651657); format: functional
Sequence of DNA repair and recombination protein RAD54-like (Q92698 whole entry): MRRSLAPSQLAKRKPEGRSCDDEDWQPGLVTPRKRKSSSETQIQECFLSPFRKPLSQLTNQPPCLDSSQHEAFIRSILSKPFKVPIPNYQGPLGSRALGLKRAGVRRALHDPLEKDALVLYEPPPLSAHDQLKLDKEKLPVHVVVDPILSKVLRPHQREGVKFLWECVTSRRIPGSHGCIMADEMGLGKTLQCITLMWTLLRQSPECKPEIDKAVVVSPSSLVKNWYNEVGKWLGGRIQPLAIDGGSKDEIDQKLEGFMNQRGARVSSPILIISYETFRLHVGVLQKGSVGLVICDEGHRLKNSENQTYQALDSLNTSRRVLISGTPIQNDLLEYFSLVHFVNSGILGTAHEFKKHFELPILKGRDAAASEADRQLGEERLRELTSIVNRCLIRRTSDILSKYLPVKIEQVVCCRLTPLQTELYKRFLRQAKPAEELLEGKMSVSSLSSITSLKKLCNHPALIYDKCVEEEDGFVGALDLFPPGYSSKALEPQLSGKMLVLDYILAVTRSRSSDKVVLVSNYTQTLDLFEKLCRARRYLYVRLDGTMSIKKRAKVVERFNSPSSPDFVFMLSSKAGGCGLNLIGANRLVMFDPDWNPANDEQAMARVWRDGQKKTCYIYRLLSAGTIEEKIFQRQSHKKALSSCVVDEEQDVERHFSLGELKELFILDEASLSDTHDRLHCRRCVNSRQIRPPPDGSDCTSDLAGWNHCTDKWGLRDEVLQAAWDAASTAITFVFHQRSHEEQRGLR

[5] = target: T1, Oxysterols receptor LXR-beta (Homo sapiens, UniProt P55055); format: functional, cell-based
T1 sequence (P55055 whole entry): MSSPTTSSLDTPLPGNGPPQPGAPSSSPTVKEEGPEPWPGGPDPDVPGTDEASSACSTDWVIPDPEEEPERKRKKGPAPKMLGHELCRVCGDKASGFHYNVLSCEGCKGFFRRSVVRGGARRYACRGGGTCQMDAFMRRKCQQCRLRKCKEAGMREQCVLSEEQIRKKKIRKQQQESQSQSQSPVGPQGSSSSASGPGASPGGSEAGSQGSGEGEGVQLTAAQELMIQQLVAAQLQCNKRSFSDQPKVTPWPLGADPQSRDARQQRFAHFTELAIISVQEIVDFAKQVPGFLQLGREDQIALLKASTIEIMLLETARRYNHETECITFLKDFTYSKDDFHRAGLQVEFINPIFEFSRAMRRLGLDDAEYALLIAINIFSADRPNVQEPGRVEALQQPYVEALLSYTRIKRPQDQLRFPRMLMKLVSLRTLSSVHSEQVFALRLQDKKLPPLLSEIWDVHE

[6] = target: G-protein coupled receptor 183 (Homo sapiens, UniProt P32249); assay: SAR confirmation of small molecule antagonists of the EBI2 receptor via a luminescent beta-arrestin assa.; format: functional
Sequence of G-protein coupled receptor 183 (P32249 whole entry): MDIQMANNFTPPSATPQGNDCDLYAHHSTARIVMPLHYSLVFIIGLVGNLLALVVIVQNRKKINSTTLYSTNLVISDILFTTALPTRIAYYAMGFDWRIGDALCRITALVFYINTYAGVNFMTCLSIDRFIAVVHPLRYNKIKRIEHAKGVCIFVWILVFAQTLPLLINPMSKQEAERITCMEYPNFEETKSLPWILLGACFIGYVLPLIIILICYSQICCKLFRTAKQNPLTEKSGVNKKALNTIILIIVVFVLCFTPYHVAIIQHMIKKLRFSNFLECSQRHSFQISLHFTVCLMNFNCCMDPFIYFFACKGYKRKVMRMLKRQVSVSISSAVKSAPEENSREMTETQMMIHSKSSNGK

[7] = target: Luciferin 4-monooxygenase (Photinus pyralis, UniProt P08659); assay: inhibition of purified Photinus pyralis luciferase – biochemical, luminescence, dose response (AID 1891)
Sequence of Luciferin 4-monooxygenase (P08659 whole entry): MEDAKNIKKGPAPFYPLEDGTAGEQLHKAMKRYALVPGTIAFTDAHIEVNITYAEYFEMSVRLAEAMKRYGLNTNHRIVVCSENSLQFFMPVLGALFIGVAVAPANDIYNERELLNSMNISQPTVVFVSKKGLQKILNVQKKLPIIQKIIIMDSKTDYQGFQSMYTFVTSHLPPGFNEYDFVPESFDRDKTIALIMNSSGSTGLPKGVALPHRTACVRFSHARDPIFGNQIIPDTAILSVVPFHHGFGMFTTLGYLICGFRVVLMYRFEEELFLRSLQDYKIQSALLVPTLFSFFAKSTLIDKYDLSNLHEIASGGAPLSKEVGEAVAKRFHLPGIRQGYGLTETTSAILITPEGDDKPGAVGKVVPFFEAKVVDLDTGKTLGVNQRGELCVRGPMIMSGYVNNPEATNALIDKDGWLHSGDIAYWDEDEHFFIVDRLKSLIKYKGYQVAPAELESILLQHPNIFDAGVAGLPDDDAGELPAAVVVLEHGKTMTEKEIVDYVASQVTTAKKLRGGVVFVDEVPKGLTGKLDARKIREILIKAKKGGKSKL

[8] = Luminescence Cell-Based Dose Confirmation HTS to Identify Inhibitors of Platelet Dense Granule Release. [Related pubchem assays: 1663 (Primary HTS), 1678 (Summary of Project)]; format: functional
Protein Tat = Protein Tat (Human immunodeficiency virus type 1 group M subtype B (isolate HXB2)(HIV-1), UniProt P04608); format: functional;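 further: tat binding to TAR RNA read out by fluorescence polarization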
Sequence of Protein Tat (P04608 whole entry): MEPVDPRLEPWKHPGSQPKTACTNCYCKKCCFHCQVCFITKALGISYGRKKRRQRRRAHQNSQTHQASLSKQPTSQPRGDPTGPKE

[9] = Dd2 parasite growth inhibition in erythrocytes – SYBR Green, dry powder samples, set 9, dose response (AID 1159568); format: functional, cell-based
[10] = target: T1, Oxysterols receptor LXR-beta; format: functional, cell-based; remark: listed apart in the source

Sequence of Kallikrein-7 (P49862 whole entry, the tested form may be a part): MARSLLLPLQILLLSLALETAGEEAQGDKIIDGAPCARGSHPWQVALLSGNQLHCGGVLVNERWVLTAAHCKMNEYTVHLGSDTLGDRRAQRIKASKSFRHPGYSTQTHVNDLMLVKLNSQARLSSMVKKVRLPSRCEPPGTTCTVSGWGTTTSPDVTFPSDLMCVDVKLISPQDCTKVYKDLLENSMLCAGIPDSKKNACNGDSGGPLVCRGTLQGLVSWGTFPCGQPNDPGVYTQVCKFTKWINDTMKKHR

## CCOC(=O)c1cnn2c(C(F)(F)F)cc(-c3cn(C)nc3C)nc12
Kallikrein-7
  EC50: 33.2 µM (inactive)

## O=C1N/C(=C/c2ccc(N3CCOCC3)o2)C(=O)N1c1cccc(Cl)c1
[1]
  IC50: 7.65 µM (active)
Beta Lactamase
  IC50: 21.3 µM (inactive)

## O=C(NC12CC3CC(CC(C3)C1)C2)c1ccc(-c2ccccc2Cl)o1
[2]
  AC50: 3.35 µM (active)
[3]
  AC50: 80.2 µM (active)

## CCOC(=O)c1cnc2c(C)c(Cl)ccc2c1NCCCN1CCOCC1
[4]
  AC50: 8.62 µM (active)

## O=[N+]([O-])c1cccc(/N=C/C=C(\O)c2cccs2)c1
[5]
  EC50: > 67.5 µM (inactive)
cells
  EC50: > 67.5 µM (inactive)

## O=C(/C=C/c1cc(Br)ccc1F)N1CCN(S(=O)(=O)c2ccc(Br)cc2)CC1
[6]
  IC50: 0.743 µM (active)

## COCCN1Cc2cc(O)n3c(nc4ccccc43)c2C1=N
Kallikrein-7
  EC50: > 69.5 µM (inactive)

## O=C(NC1CCCC1)C(c1ccco1)N(Cc1ccccc1)C(=O)c1csnn1 (configuration not stated)
[7]
  EC50: > 112 µM (not active)
[8]
  EC50: > 112 µM (not active)
Protein Tat
  IC50: > 100 µM (active)

## CCc1csc(N2[C@H](CO)[C@H](c3ccccc3)[C@@H]2CNC)n1
[9]
  AC50: 7.33 µM (active)

## Cc1ccc(Nc2ncccc2C(N)=O)cc1[N+](=O)[O-]
[10]
  EC50: > 67.6 µM (inactive)

## Cc1cc2nc(-c3cccnc3SCC(=O)NCc3ccco3)[nH]c2cc1C
[10]
  EC50: > 67.6 µM (inactive)

## O=C(/C=C/c1ccc(Cl)c(Cl)c1)N1CCN(Cc2ccc(Cl)cc2)CC1
[6]
  IC50: 0.0143 µM (active)
